Literature values as cited in US11123365B2, “Compositions comprising palmitoylethanolamide and hydrogen water, and methods thereof” (Perricone Hydrogen Water Company, LLC, priority 2019, dated 2021).

CCCCCCCCCCCCCCCC(=O)NCCO [palmitoylethanolamide]
solubility in water: less than 20 mM
